According to paper PMC10762078, “Role of UPF1-LIN28A interaction during early differentiation of pluripotent stem cells” (Nature Communications, 2024):
Ends that are not written are not given here.

Tested on: hPSCs
Assay: RT-qPCR of pluripotency and germ-layer markers during differentiation with CPP-peptides (Supplementary Fig. 7b-e)
Type: cell-based, human
Conditions: for GATA4 (RT-qPCR) / SOX17 (RT-qPCR): Fig. s7e
Procedure: For CPP-conjugated peptide delivery, HeLa, 293T, and PA-1 cells were incubated with CPP-conjugated peptides or CPP-FITC at 2 μM in DMEM with 10% FBS for 12 h a day before cell harvest. hPSCs were treated with CPP-conjugated peptides at 10 μM in mTeSR Plus Medium, and the peptide-containing medium was changed every day over 10 days. The ROCK inhibitor (Tocris Bioscience, Y-27632) treated-hPSCs were dissociated into single cells using Accutase (Merck, SCR005) and differentiated into ectoderm, mesoderm, and endoderm using the STEMdiff Trilineage Differentiation Kit ([…] Technologies, 05230) following the manufacturer’s protocol. Differentiated cells treated with CPP-conjugated peptides were analysed at 0, 3, and 5 days for ectoderm and endoderm, and at 0, 3, and 4 days for mesoderm. […]
cDNA was synthesised using RevertAid Reverse Transcriptase (Thermo Fisher Scientific, EP0441) with synthesised random hexamer (Macrogen) for total RNA or stem-loop primers for miRNA. For RT-qPCR reactions, the SensiFAST SYBR No-ROX kit (Meridian Bioscience) was used according to the manufacturer’s protocol. All data analysis and visualisation were conducted using R 3.6.1 [www.r-project.org] or GraphPad Prism 10. RT primers for miRNA and RT-qPCR primer sequences are provided in Supplementary Data 6. […]
FPKM of each gene was presented f r om RNA-seq analysis. b–e hPSCs wer e treated with the indicated peptide during each germ la ye r differentiation. […]
An unpaired Student’s t-test was used for a–e. Data are presented as mean values ± SEM. All statistical test us ed wer e two-s ided. T he m inim um number of independent biological replicate experim ents was a–f n = 3. T he experiments wer e conducted three tim es, each iteration producing consistent results.

[1] = Fig. s7d, day 3, mean of 3 replicates
[2] = Fig. s7d, day 4, mean of 3 replicates

Which results are given for KKKWCRKKKSSADEKRYRALKRTAERELLMNA [P8]?
SNAI1 mRNA level (RT-qPCR) (Fig. s7d, Day 3, replicate 2): 13.1184; TBXT mRNA level (RT-qPCR) (Fig. s7d, Day 3, replicate 2): 4302.87; BMP2 mRNA level (RT-qPCR) (Fig. s7d, Day 3, replicate 3): 1.333; BMP4 mRNA level (RT-qPCR) (Fig. s7d, Day 3, replicate 3): 53.6277; CDH2 mRNA level (RT-qPCR) (Fig. s7d, Day 3, replicate 3): 17.5345; CXCR4 mRNA level (RT-qPCR) (Fig. s7d, Day 3, replicate 3): 641.469; SNAI1 mRNA level (RT-qPCR) (Fig. s7d, Day 3, replicate 3): 12.7742; TBXT mRNA level (RT-qPCR) (Fig. s7d, Day 3, replicate 3): 4804.52; BMP2 mRNA level (RT-qPCR) (Fig. s7d, Day 4, replicate 1): 0.2478; BMP4 mRNA level (RT-qPCR) (Fig. s7d, Day 4, replicate 1): 31.2396; CDH2 mRNA level (RT-qPCR) (Fig. s7d, Day 4, replicate 1): 14.5509; CXCR4 mRNA level (RT-qPCR) (Fig. s7d, Day 4, replicate 1): 668.803; SNAI1 mRNA level (RT-qPCR) (Fig. s7d, Day 4, replicate 1): 16.3401; TBXT mRNA level (RT-qPCR) (Fig. s7d, Day 4, replicate 1): 2083; BMP2 mRNA level (RT-qPCR) (Fig. s7d, Day 4, replicate 2): 0.261; BMP4 mRNA level (RT-qPCR) (Fig. s7d, Day 4, replicate 2): 27.7899; CDH2 mRNA level (RT-qPCR) (Fig. s7d, Day 4, replicate 2): 13.2223; CXCR4 mRNA level (RT-qPCR) (Fig. s7d, Day 4, replicate 2): 587.806; SNAI1 mRNA level (RT-qPCR) (Fig. s7d, Day 4, replicate 2): 17.9864; TBXT mRNA level (RT-qPCR) (Fig. s7d, Day 4, replicate 2): 2236.13; BMP2 mRNA level (RT-qPCR) (Fig. s7d, Day 4, replicate 3): 0.2852; BMP4 mRNA level (RT-qPCR) (Fig. s7d, Day 4, replicate 3): 35.8542; CDH2 mRNA level (RT-qPCR) (Fig. s7d, Day 4, replicate 3): 15.5934; CXCR4 mRNA level (RT-qPCR) (Fig. s7d, Day 4, replicate 3): 589.372; SNAI1 mRNA level (RT-qPCR) (Fig. s7d, Day 4, replicate 3): 18.1009; TBXT mRNA level (RT-qPCR) (Fig. s7d, Day 4, replicate 3): 2648.18; SNAI1 difference between means (P8 - P1) ± SEM (Fig. s7d, day 3, P8 vs. P1): -10.01 ± 2.987; SNAI1 difference between means, 95% confidence interval (Fig. s7d, day 3, P8 vs. P1): -18.30 to -1.717; TBXT difference between means (P8 - P1) ± SEM (Fig. s7d, day 3, P8 vs. P1): -3827 ± 1244; TBXT difference between means, 95% confidence interval (Fig. s7d, day 3, P8 vs. P1): -7280 to -372.8; SNAI1 mRNA level (RT-qPCR), mean [1]: 12.93; TBXT mRNA level (RT-qPCR), mean [1]: 4321; BMP4 difference between means (P8 - P1) ± SEM (Fig. s7d, day 4, P8 vs. P1): 18.59 ± 2.500; BMP4 difference between means, 95% confidence interval (Fig. s7d, day 4, P8 vs. P1): 11.65 to 25.53; CDH2 difference between means (P8 - P1) ± SEM (Fig. s7d, day 4, P8 vs. P1): -2.944 ± 0.7977; CDH2 difference between means, 95% confidence interval (Fig. s7d, day 4, P8 vs. P1): -5.158 to -0.7287; TBXT difference between means (P8 - P1) ± SEM (Fig. s7d, day 4, P8 vs. P1): -1631 ± 305.2; TBXT difference between means, 95% confidence interval (Fig. s7d, day 4, P8 vs. P1): -2478 to -783.3; BMP4 mRNA level (RT-qPCR), mean [2]: 31.63; CDH2 mRNA level (RT-qPCR), mean [2]: 14.46; TBXT mRNA level (RT-qPCR), mean [2]: 2322; GATA4 (RT-qPCR) (Day 0, replicate 1): 0.7242; GATA4 (RT-qPCR) (Day 0, replicate 2): 1.3517; GATA4 (RT-qPCR) (Day 0, replicate 3): 0.9241; GATA4 (RT-qPCR) (Day 3, replicate 1): 32.2; GATA4 (RT-qPCR) (Day 3, replicate 2): 35.8526; GATA4 (RT-qPCR) (Day 3, replicate 3): 22.1669; GATA4 (RT-qPCR) (Day 5, replicate 1): 75.9376; GATA4 (RT-qPCR) (Day 5, replicate 2): 69.9276; GATA4 (RT-qPCR) (Day 5, replicate 3): 152.842; SOX17 (RT-qPCR) (Day 0, replicate 1): 1.264; SOX17 (RT-qPCR) (Day 0, replicate 2): 0.8709; SOX17 (RT-qPCR) (Day 0, replicate 3): 0.8647; SOX17 (RT-qPCR) (Day 3, replicate 1): 2247.1; SOX17 (RT-qPCR) (Day 3, replicate 2): 1796.71; SOX17 (RT-qPCR) (Day 3, replicate 3): 1610.91; SOX17 (RT-qPCR) (Day 5, replicate 1): 1021.85; SOX17 (RT-qPCR) (Day 5, replicate 2): 1109.15; SOX17 (RT-qPCR) (Day 5, replicate 3): 1096.19
